Experimental data reported in the supplement of paper PMC10307832.

Experiments:
Assay in all cases: relative viability (nuclei count vs DMSO), 5 days (fraction); higher = more cells survive
[1] = compound: COC1=CC=C(C=C1)CN2C=CC3=C2C=C(C=C3)C(=O)NO + Nc1nc2[nH]cc(CCc3ccc(C(=O)N[C@@H](CCC(=O)O)C(=O)O)cc3)c2c(=O)[nH]1 [Pemetrexed] (partner 0.2 µM)
Method in brief: (§1)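 Medians of duplicate plates are given as relative viability. That measure is the nuclei count in treated wells divided by the count in vehicle wells. Counts were taken on 4× images of lung cancer cell lines in 1536-well plates, 5 days after pin-tool dosing the day after seeding with one drug alone or a fixed anchor-drug dose plus five library-drug doses (not always all listed) in √10 steps.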

Veliparib + Phenformin = compound: C[C@]1(c2nc3c(C(N)=O)cccc3[nH]2)CCCN1 [Veliparib] + N=C(N)NC(=N)NCCc1ccccc1 [Phenformin] (partner 250 µM)
Method in brief: as §1

[2] = compound: COC1=CC=C(C=C1)CN2C=CC3=C2C=C(C=C3)C(=O)NO + CC1(C)CCC(c2ccc(Cl)cc2)=C(CN2CCN(c3ccc(C(=O)NS(=O)(=O)c4ccc(N[C@H](CCN5CCOCC5)CSc5ccccc5)c(S(=O)(=O)C(F)(F)F)c4)cc3)CC2)C1 [Navitoclax] (partner 0.5 µM)
Method in brief: as §1

[3] = compound: COC1=CC=C(C=C1)CN2C=CC3=C2C=C(C=C3)C(=O)NO + CC(C)C[C@H](NC(=O)[C@H](Cc1ccccc1)NC(=O)c1cnccn1)B(O)O [Bortezomib] (partner 0.002 µM)
Method in brief: as §1

Cell Line	relative viability ([1]; first compound 0.08 µM)	relative viability ([1]; first compound 0.253 µM)	relative viability ([1]; first compound 0.8 µM)	relative viability ([1]; first compound 2.53 µM)	relative viability ([1]; first compound 8 µM)	relative viability (Veliparib + Phenformin; first compound 0.02 µM)	relative viability (Veliparib + Phenformin; first compound 0.06325 µM)	relative viability (Veliparib + Phenformin; first compound 0.2 µM)	relative viability (Veliparib + Phenformin; first compound 0.6325 µM)	relative viability (Veliparib + Phenformin; first compound 2 µM)	relative viability ([2]; first compound 0.08 µM)	relative viability ([2]; first compound 0.253 µM)	relative viability ([2]; first compound 0.8 µM)	relative viability ([2]; first compound 2.53 µM)	relative viability ([2]; first compound 8 µM)	relative viability ([3]; first compound 0.08 µM)	relative viability ([3]; first compound 0.253 µM)	relative viability ([3]; first compound 0.8 µM)	relative viability ([3]; first compound 2.53 µM)	relative viability ([3]; first compound 8 µM)
201T	0.314	0.349	0.322	0.333	0.324	0.411	0.356	0.463	0.457	0.462	1.19	1.24	1.22	1.23	1.19	1.09	1.1	1.1	1.14	1.06
A549	–	–	–	–	–	–	0.209	0.166	0.143	0.185	1.22	1.26	1.25	1.15	1.07	–	–	–	–	–
A-427	0.923	–	0.965	0.907	0.842	–	0.29	0.328	0.391	0.278	–	1	1.02	1.04	0.806	–	1.01	1.04	0.994	0.931
ABC-1	–	–	–	–	–	–	0.227	0.265	0.233	0.288	–	–	–	–	–	–	0.274	0.296	0.325	0.318
BEN	0.729	0.615	0.921	0.725	0.661	0.24	0.251	0.292	0.253	0.25	0.0556	0.0746	0.0683	0.156	0.0729	0.675	0.671	0.906	0.754	0.656
CAL-12T	1.2	1.27	1.09	1.1	1.27	0.436	0.617	0.537	0.54	0.53	0.964	1.29	1.25	1.24	1.23	0.987	–	1.06	1.06	0.862
COR-L23	0.206	0.2	0.192	0.217	0.197	0.409	0.373	0.4	0.407	0.425	0.77	0.945	1.04	1.11	1.01	0.93	0.996	1.08	1.03	0.922
COR-L 105	0.686	1.08	1.25	0.983	1.04	0.386	0.464	0.504	0.492	0.451	–	1.15	0.844	0.851	0.551	–	0.741	0.654	0.625	0.277
Calu-6	–	–	–	–	–	–	–	–	–	–	0.809	0.84	0.805	0.828	0.698	1.07	0.979	0.968	0.953	0.871
ChaGo-K-1	–	0.266	0.275	0.262	0.255	0.326	0.517	0.465	0.471	0.514	–	0.932	1.13	0.911	0.887	–	0.752	0.962	0.942	0.868
EBC-1	–	–	–	–	–	–	–	–	–	–	0.399	0.406	0.378	0.304	0.313	0.574	0.496	0.532	0.54	0.44
EKVX	–	0.391	0.371	0.45	0.392	0.194	0.162	0.249	0.221	0.222	0.934	1	0.968	0.988	0.952	1.03	0.762	1.16	1.08	1.21
EMC-BAC-2	0.428	–	0.451	0.476	0.491	0.442	0.532	0.609	0.484	0.575	0.993	1.21	1.16	1.21	1.15	0.972	1.13	1.18	1.07	0.944
EPLC-272H	–	0.342	0.317	0.271	0.322	0.304	0.307	0.332	0.292	0.333	0.7	1.06	1.13	1.05	1.18	0.925	0.953	1.16	0.861	0.855
H3255	0.576	0.519	0.614	0.583	0.583	0.365	0.367	0.36	0.322	0.329	0.574	0.501	0.503	0.541	0.46	0.73	0.623	0.733	0.739	0.894
HARA	–	0.263	0.277	0.258	0.203	0.412	0.399	0.48	0.409	0.474	0.479	1.1	1.13	1.17	1.14	0.536	1.22	1.15	1.12	1.13
HCC-15	0.203	0.237	0.243	0.234	0.217	–	0.457	0.452	0.431	0.472	0.605	0.726	0.717	0.741	0.675	0.854	1.09	1.13	1.02	0.998
HCC-44	0.628	0.665	0.585	0.649	0.664	0.157	0.144	0.188	0.17	0.135	0.891	0.976	0.872	0.883	0.989	0.845	0.912	0.897	0.914	0.907
HCC-78	0.901	0.872	0.938	0.918	0.66	0.688	0.711	0.71	0.758	0.544	–	0.718	0.856	0.872	0.709	0.474	0.49	0.437	0.543	0.51
HCC-366	0.119	0.153	0.172	0.153	0.175	0.582	0.578	0.576	0.522	0.636	–	1.05	1.14	1.06	1.13	–	1.12	1.03	1.02	0.934
HCC-827	0.228	0.27	0.262	0.266	0.253	0.357	0.396	0.43	0.368	0.387	0.95	0.964	0.988	1.08	0.986	1.01	0.929	1.05	0.896	1.04
HOP-62	0.278	0.454	0.31	0.244	0.35	0.514	0.61	0.61	0.613	0.723	0.547	0.984	1.02	1.08	1.02	0.893	0.841	0.912	0.853	0.946

Cell Line	relative viability ([1]; first compound 0.08 µM)	relative viability ([1]; first compound 0.253 µM)	relative viability ([1]; first compound 0.8 µM)	relative viability ([1]; first compound 2.53 µM)	relative viability ([1]; first compound 8 µM)	relative viability (Veliparib + Phenformin; first compound 0.02 µM)	relative viability (Veliparib + Phenformin; first compound 0.06325 µM)	relative viability (Veliparib + Phenformin; first compound 0.2 µM)	relative viability (Veliparib + Phenformin; first compound 0.6325 µM)	relative viability (Veliparib + Phenformin; first compound 2 µM)	relative viability ([2]; first compound 0.08 µM)	relative viability ([2]; first compound 0.253 µM)	relative viability ([2]; first compound 0.8 µM)	relative viability ([2]; first compound 2.53 µM)	relative viability ([2]; first compound 8 µM)	relative viability ([3]; first compound 0.08 µM)	relative viability ([3]; first compound 0.253 µM)	relative viability ([3]; first compound 0.8 µM)	relative viability ([3]; first compound 2.53 µM)	relative viability ([3]; first compound 8 µM)
IA-LM	–	–	–	–	–	–	–	–	–	–	0.675	0.882	1.02	0.851	0.695	0.857	0.69	0.942	0.769	0.726
LC-2-ad	0.283	0.292	0.307	0.303	0.261	–	0.551	0.631	0.589	0.472	0.421	0.427	0.561	0.527	0.552	0.964	0.989	1	0.959	0.769
LCLC-103H	0.475	0.452	0.482	0.414	0.425	0.328	0.353	0.341	0.325	0.327	–	–	–	–	–	0.982	0.998	1.11	1	1.06
LK-2	–	0.207	0.354	0.353	0.243	–	0.516	0.594	0.543	0.481	–	0.906	1	0.958	0.747	–	–	–	–	–
NCI-H358	–	0.161	0.161	0.167	0.164	0.226	0.316	0.337	0.32	0.351	–	–	–	–	–	–	–	–	–	–
NCI-H522	–	1.01	1.06	0.84	1	0.683	0.664	0.667	0.583	0.802	–	–	–	–	–	–	–	–	–	–
NCI-H650	0.864	1.03	0.89	0.892	0.888	0.439	0.385	0.405	0.408	0.412	–	–	–	–	–	0.832	0.732	0.881	0.928	0.64
NCI-H661	–	0.889	0.836	0.957	0.954	0.299	0.289	0.25	0.274	0.264	–	–	–	–	–	–	0.811	0.649	0.843	0.715
NCI-H727	–	–	–	–	–	0.481	0.443	0.549	0.483	0.521	0.342	0.404	0.404	0.543	0.341	0.834	0.98	1.09	0.908	0.755
NCI-H1299	–	–	–	–	–	–	–	–	–	–	1.01	1.06	1.07	1.07	1.02	0.994	1.06	1.04	1.03	1.03
NCI-H1395	–	0.788	0.913	0.91	0.726	0.355	0.421	0.437	0.393	0.408	0.688	1.29	1.12	1.4	0.992	–	–	–	–	–
NCI-H1563	0.489	0.708	0.839	0.728	0.761	0.594	0.638	0.686	0.643	0.667	–	–	–	–	–	0.788	0.916	0.95	0.839	0.69
NCI-H1623	–	–	–	–	–	–	0.514	0.605	0.583	0.545	–	–	–	–	–	–	–	–	–	–
NCI-H1648	0.794	0.853	0.829	0.717	0.641	–	–	–	–	–	–	–	–	–	–	–	–	–	–	–
NCI-H1703	–	–	–	–	–	–	–	–	–	–	1.49	1.09	1.27	1.01	1.08	0.322	0.403	0.327	0.32	0.26
NCI-H1793	–	0.943	0.997	1.08	0.698	0.392	0.384	0.466	0.329	0.361	0.461	0.672	0.479	0.406	0.424	–	–	–	–	–
NCI-H1944	–	0.63	0.568	0.705	0.527	0.211	0.188	0.207	0.197	0.204	–	0.998	1.02	1.08	1.08	–	–	–	–	–
NCI-H2170	0.276	0.268	0.266	0.26	0.235	0.472	0.41	0.415	0.401	0.459	0.476	0.669	0.715	0.634	0.509	–	–	–	–	–
NCI-H2342	0.726	0.788	0.791	0.753	0.829	0.583	0.589	0.506	0.579	0.587	–	–	–	–	–	–	–	–	–	–
SK-MES-1	0.968	0.985	0.9	0.896	0.849	0.707	0.626	0.628	0.599	0.663	1.2	1.3	1.26	1.2	1.02	–	–	–	–	–
SW 900	0.446	0.47	0.478	0.486	0.474	–	–	0.679	0.504	0.508	–	–	–	–	–	–	–	–	–	–
